# Patent US9388189B2, “Pyrrolotriazinone derivatives as PI3K inhibitors” (ALMIRALL, S.A., priority 2012, dated 2016)
# Target: PI3Kδ (PI3Kd) (Homo sapiens (Human), UniProt O00329)
# Assay: PI3K HTRF enzymatic inhibition assay (cell-free), delta isoform
# Details: read-out: IC50 PI3Kd HTRF; recombinant PI3K delta, [ATP] 15 μM, [PIP2] 2 μM, 30 min preincubation
# From the text: Compounds were screened for their ability to inhibit PI3Kα (PI3Ka), PI3Kβ (PI3Kb), PI3Kδ (PI3Kd) and PI3Kγ (PI3Kg) using a cell-free based PI3K HTRF™ assay (Millipore, ref. #33-017).
# PI-3 Kinase HTRF kit (ref. #33-037) and the different PI3K recombinant isoforms (ref. #14-602, ref. #14-603, ref. #14-604, ref. #15-558 for Alpha, Beta, Delta and Gamma respectively) were purchased at Millipore (expressed in insect cells). ATP was purchased at Sigma Aldrich (ref. #A7699).
# The compounds were pre-incubated with the enzyme for 30 min before starting of the catalytic reaction. [PIP2] was used at its Km. […] Time of assay and [Enzyme] were optimized to work in the linear range. Stop and Detection mixtures were used as specified in the Millipore PI-3 Kinase kit.
# Reaction time and enzyme concentration in the assay will depend of each batch.
# All experiments were analysed using Activity Base software from IDBS and the four-parameter log equation.
# Chain of PI3Kδ (PI3Kd) (O00329 whole entry, canonical isoform): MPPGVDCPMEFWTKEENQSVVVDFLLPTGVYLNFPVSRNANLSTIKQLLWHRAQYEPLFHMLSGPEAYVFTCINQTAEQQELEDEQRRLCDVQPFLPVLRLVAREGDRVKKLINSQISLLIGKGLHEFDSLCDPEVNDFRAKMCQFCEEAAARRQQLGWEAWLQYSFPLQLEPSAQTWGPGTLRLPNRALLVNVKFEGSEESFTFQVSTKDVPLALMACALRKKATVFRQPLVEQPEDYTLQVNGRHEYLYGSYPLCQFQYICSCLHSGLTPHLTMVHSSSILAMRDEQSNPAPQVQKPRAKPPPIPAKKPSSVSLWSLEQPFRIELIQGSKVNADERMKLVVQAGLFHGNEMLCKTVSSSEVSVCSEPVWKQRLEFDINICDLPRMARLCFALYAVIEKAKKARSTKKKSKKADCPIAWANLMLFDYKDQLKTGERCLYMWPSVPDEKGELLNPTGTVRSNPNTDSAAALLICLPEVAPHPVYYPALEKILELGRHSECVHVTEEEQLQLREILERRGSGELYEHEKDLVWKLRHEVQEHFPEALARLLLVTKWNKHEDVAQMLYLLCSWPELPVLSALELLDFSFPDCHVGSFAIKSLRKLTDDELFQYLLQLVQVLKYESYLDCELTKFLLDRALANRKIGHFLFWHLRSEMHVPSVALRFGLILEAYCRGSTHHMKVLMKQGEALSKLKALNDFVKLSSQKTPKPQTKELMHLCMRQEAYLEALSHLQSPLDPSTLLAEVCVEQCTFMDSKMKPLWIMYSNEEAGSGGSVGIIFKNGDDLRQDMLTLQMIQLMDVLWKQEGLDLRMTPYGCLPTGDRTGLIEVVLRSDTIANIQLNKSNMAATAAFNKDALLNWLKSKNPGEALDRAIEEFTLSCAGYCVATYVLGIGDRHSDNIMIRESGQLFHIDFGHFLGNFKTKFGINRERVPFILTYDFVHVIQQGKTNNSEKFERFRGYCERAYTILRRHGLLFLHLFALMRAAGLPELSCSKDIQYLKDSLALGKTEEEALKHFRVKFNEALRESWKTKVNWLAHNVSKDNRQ
# Chain of PI3Kδ (PI3Kd) (P27986 whole entry partner, canonical isoform): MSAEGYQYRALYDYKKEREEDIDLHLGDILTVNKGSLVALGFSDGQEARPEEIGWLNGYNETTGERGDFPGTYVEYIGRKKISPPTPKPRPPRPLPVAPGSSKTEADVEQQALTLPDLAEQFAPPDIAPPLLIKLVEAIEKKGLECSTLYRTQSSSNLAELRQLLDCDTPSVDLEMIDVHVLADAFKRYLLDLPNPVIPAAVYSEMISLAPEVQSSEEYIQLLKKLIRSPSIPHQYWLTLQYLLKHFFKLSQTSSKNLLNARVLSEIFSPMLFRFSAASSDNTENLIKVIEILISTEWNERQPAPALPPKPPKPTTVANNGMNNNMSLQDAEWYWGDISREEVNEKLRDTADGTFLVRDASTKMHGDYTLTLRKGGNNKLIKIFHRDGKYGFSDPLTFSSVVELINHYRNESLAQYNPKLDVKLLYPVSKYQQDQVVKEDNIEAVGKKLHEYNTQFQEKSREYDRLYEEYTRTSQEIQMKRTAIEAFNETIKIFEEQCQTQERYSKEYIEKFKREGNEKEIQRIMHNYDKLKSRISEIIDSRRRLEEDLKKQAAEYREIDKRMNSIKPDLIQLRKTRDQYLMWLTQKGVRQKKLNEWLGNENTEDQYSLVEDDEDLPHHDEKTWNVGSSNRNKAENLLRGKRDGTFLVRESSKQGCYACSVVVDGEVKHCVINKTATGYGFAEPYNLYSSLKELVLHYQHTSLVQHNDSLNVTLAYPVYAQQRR
structure (smiles),measurement,value
"N#Cc1c(N)ncnc1N[C@@H](CCOc1ccccc1)c1nn2cccc2c(=O)n1-c1ccccc1 [Example 20, (S)-4-Amino-6-((1-(4-oxo-3-phenyl-3,4-dihydropyrrolo[2,1-f][1,2,4]triazin-2-yl)-3-phenoxypropyl)amino)pyrimidine-5-carbonitrile]",IC50,1 nM
"Cc1ccn2nc([C@H](C)Nc3ncnc4[nH]cc(-c5cnc6[nH]ccc6c5)c34)n(-c3ccccc3)c(=O)c12 [Example 139, (S)-2-(1-((5-(1H-Pyrrolo[2,3-b]pyridin-5-yl)-7H-pyrrolo[2,3-d]pyrimidin-4-yl)amino)ethyl)-5-methyl-3-phenylpyrrolo[2,1-f][1,2,4]triazin-4(3H)-one]",IC50,0.2 nM
"COc1ncc(-c2c(N)ncnc2N[C@@H](C)c2nn3ccc(C)c3c(=O)n2-c2ccccc2)cc1NS(=O)(=O)c1ccc(F)cc1 [Example 22, (S)—N-(5-(4-Amino-6-((1-(5-methyl-4-oxo-3-phenyl-3,4-dihydropyrrolo[2,1-f][1,2,4]triazin-2-yl)ethyl)amino)pyrimidin-5-yl)-2-methoxypyridin-3-yl)-4-fluorobenzenesulfonamide]",IC50,12 nM
"COc1cc(-c2c(N)ncnc2N[C@@H](C)c2nn3ccc(C)c3c(=O)n2-c2ccccc2)cc(C(F)(F)F)n1 [Example 137, (S)-2-(1-((6-Amino-5-(2-methoxy-6-(trifluoromethyl)pyridin-4-yl)pyrimidin-4-yl)amino)ethyl)-5-methyl-3-phenylpyrrolo[2,1-f][1,2,4]triazin-4(3H)-one]",IC50,4 nM
"Cc1ccn2nc([C@H](C)Nc3ncnc4[nH]cc(-c5cc(O)cc(NS(=O)(=O)c6ccc(O)cc6)c5)c34)n(-c3ccccc3)c(=O)c12 [Example 125, (S)-4-Hydroxy-N-(3-hydroxy-5-(4-((1-(5-methyl-4-oxo-3-phenyl-3,4-dihydropyrrolo[2,1-f][1,2,4]triazin-2-yl)ethyl)amino)-7H-pyrrolo[2,3-d]pyrimidin-5-yl)phenyl)benzenesulfonamide]",IC50,0.7 nM
"Cc1ccn2nc([C@H](C)Nc3ncnc4[nH]cc(-c5ccn(CCN6CCOCC6)n5)c34)n(-c3ccccc3)c(=O)c12 [Example 144, (S)-5-Methyl-2-(1-((5-(1-(2-morpholinoethyl)-1H-pyrazol-3-yl)-7H-pyrrolo[2,3-d]pyrimidin-4-yl)amino)ethyl)-3-phenylpyrrolo[2,1-f][1,2,4]triazin-4(3H)-one]",IC50,2 nM
"Cc1nnc(-c2cccc(-c3c[nH]c4ncnc(N[C@@H](C)c5nn6ccc(C)c6c(=O)n5-c5ccccc5)c34)c2)o1 [Example 188, (S)-5-Methyl-2-(1-((5-(3-(5-methyl-1,3,4-oxadiazol-2-yl)phenyl)-7H-pyrrolo[2,3-d]pyrimidin-4-yl)amino)ethyl)-3-phenylpyrrolo[2,1-f][1,2,4]triazin-4(3H)-one]",IC50,0.4 nM
"Cc1ccn2nc([C@H](C)Nc3ncnc(N)c3-c3cccc(NS(=O)(=O)c4ccc(O)cc4)c3)n(-c3ccccc3)c(=O)c12 [Example 106, (S)—N-(3-(4-Amino-6-((1-(5-methyl-4-oxo-3-phenyl-3,4-dihydropyrrolo[2,1-f][1,2,4]triazin-2-yl)ethyl)amino)pyrimidin-5-yl)phenyl)-4-hydroxybenzenesulfonamide]",IC50,0.4 nM
"Cc1ccn2nc([C@H](C)Nc3ncnc4[nH]cc(-c5cc(O)cc(NS(=O)(=O)CCN(C)C)c5)c34)n(-c3ccccc3)c(=O)c12 [Example 150, (S)-2-(Dimethylamino)-N-(3-hydroxy-5-(4-((1-(5-methyl-4-oxo-3-phenyl-3,4-dihydropyrrolo[2,1-f][1,2,4]triazin-2-yl)ethyl)amino)-7H-pyrrolo[2,3-d]pyrimidin-5-yl)phenyl)ethanesulfonamide]",IC50,1 nM
"COc1cc(C#N)cc(-c2c[nH]c3ncnc(N[C@@H](C)c4nn5ccc(C)c5c(=O)n4-c4ccccc4)c23)c1 [Example 147, (S)-3-Methoxy-5-(4-((1-(5-methyl-4-oxo-3-phenyl-3,4-dihydropyrrolo[2,1-f][1,2,4]triazin-2-yl)ethyl)amino)-7H-pyrrolo[2,3-d]pyrimidin-5-yl)benzonitrile]",IC50,0.4 nM
"Cc1ccn2nc([C@H](C)Nc3ncnc4[nH]cc(-c5cc(NS(C)(=O)=O)cc6[nH]ncc56)c34)n(-c3ccccc3)c(=O)c12 [Example 181, (S)—N-(4-(4-((1-(5-Methyl-4-oxo-3-phenyl-3,4-dihydropyrrolo[2,1-f][1,2,4]triazin-2-yl)ethyl)amino)-7H-pyrrolo[2,3-d]pyrimidin-5-yl)-1H-indazol-6-yl)methanesulfonamide]",IC50,5 nM
"Cc1ccn2nc([C@H](C)Nc3ncnc4[nH]cc(-c5ccnc(N6CCC(N(C)C)CC6)c5)c34)n(-c3ccccc3)c(=O)c12 [Example 225, (S)-2-(1-((5-(2-(4-(Dimethylamino)piperidin-1-yl)pyridin-4-yl)-7H-pyrrolo[2,3-d]pyrimidin-4-yl)amino)ethyl)-5-methyl-3-phenylpyrrolo[2,1-f][1,2,4]triazin-4(3H)-one]",IC50,0.4 nM
"Cc1ccn2nc([C@H](C)Nc3ncncc3-c3cc(O)cc(F)c3)n(-c3ccccc3)c(=O)c12 [Example 35, (S)-2-(1-((5-(3-Fluoro-5-hydroxyphenyl)pyrimidin-4-yl)amino)ethyl)-5-methyl-3-phenylpyrrolo[2,1-f][1,2,4]triazin-4(3H)-one]",IC50,4 nM
"Cc1ccn2nc([C@H](C)Nc3ncnc4[nH]cc(Sc5ccc(O)cc5)c34)n(-c3ccccc3)c(=O)c12 [Example 97, (S)-2-(1-((5-((4-Hydroxyphenyl)thio)-7H-pyrrolo[2,3-d]pyrimidin-4-yl)amino)ethyl)-5-methyl-3-phenylpyrrolo[2,1-f][1,2,4]triazin-4(3H)-one]",IC50,2 nM
"Cc1ccn2nc([C@H](C)Nc3ncnc4[nH]cc(-c5ccn(-c6cccc(O)c6)n5)c34)n(-c3ccccc3)c(=O)c12 [Example 163, (S)-2-(1-((5-(1-(3-Hydroxyphenyl)-1H-pyrazol-3-yl)-7H-pyrrolo[2,3-d]pyrimidin-4-yl)amino)ethyl)-5-methyl-3-phenylpyrrolo[2,1-f][1,2,4]triazin-4(3H)-one]",IC50,0.2 nM
"Cc1ccn2nc(CNc3ncnc(N)c3-c3cncc(C(F)F)c3)n(-c3ccccc3)c(=O)c12 [Example 169, 2-(((6-Amino-5-(5-(difluoromethyl)pyridin-3-yl)pyrimidin-4-yl)amino)methyl)-5-methyl-3-phenylpyrrolo[2,1-f][1,2,4]triazin-4(3H)-one]",IC50,3 nM
"COc1ncc(-c2c(N)ncnc2N[C@@H](C)c2nn3ccc(C)c3c(=O)n2-c2ccccc2)cc1NS(=O)(=O)c1ccc(O)cc1 [Example 157, (S)—N-(5-(4-Amino-6-((1-(5-methyl-4-oxo-3-phenyl-3,4-dihydropyrrolo[2,1-f][1,2,4]triazin-2-yl)ethyl)amino)pyrimidin-5-yl)-2-methoxypyridin-3-yl)-4-hydroxybenzenesulfonamide]",IC50,0.2 nM
"C[C@H](Nc1ncnc2[nH]cc(-c3cc(NS(C)(=O)=O)cc4[nH]ccc34)c12)c1nn2cccc2c(=O)n1-c1ccccc1 [Example 165, (S)—N-(4-(4-((1-(4-Oxo-3-phenyl-3,4-dihydropyrrolo[2,1-f][1,2,4]triazin-2-yl)ethyl)amino)-7H-pyrrolo[2,3-d]pyrimidin-5-yl)-1H-indol-6-yl)methanesulfonamide]",IC50,5 nM
